One data set relates to HCV. Put plainly: HCV viral entry into human host cells. It counts as cell-based.
The nature of data set [1]: Dissolution of Catvira film coated tablets (Ribavirin and Sofosbuvir released). The class given is physicochemical. As for the experimental part:
• 1.1. Description: Yellow to deep yellow, oblong, biconvex, film coated tablets • 1.2. Determination of Average of Weight: (Limit: 1000 mg±5%) Proceed as BP2014 • 1.3. Determination of Disintegration Time: (Limit: NMT 30 min) Proceed as USP 35 • 1.4. Determination of Dissolution test for Sofosbuvir and Ribavirin:— Conditions of Dissolution:— • USP Apparatus: II (Paddle) • Speed: […] & Materials:— • Methanol HPLC Grade. • Acetonitrile HPLC Grade • Tetrahydrofuran HPLC Grade. • Ammonium acetate • Sofosbuvir and Ribavirin working standard. Apparatus & Equipement:— • Calibrated Analytical balance accurate to±0.1 mg • HPLC:—Waters UV detector or equivalent • Column: Symmetry (C18 (5 μm) 4.6×250 mm) or equivalent. • Sonicator with temperature control • Volumetric flasks • Pipettes class A Chromatographic Conditions:— • Column: Symmetry (C18 (5 μm) 4.6×250 mm) or equivalent. • Flow rate: 0.8 ml/min. • Detector: UV at λ242 nm • Injection volume: 10 μl • Mobile phase: (Acetonitrile: Tetrahydrofuran: Ammonium Acetate) (10:40:50) • Acetate Buffer: into 1000 ml volumetric flask, weight 1 gm of Ammonium Acetate buffer, add 900 ml purified water shake to dissolve then complete to the volume by the same solvent, adjust pH 3.5 by Glacial Acetic acid. […]

Turning to `O=C(O[C@@H]1Cc2c(O)cc(O)cc2O[C@@H]1c1cc(O)c(O)c(O)c1)c1cc(O)c(O)c(O)c1` [EGCG, (−)-Epigallocatechin Gallate], in the data set with HCV, the “HCV viral entry into human host cells” value was “effectively suppressed”.

Consider `CC(C)OC(=O)[C@H](C)N[P@](=O)(OC[C@H]1O[C@@H](n2ccc(=O)[nH]c2=O)[C@](C)(F)[C@@H]1O)Oc1ccccc1` [Sofosbuvir, Isopropyl (2S)-2-[(2R, 3R, 4R, 5R)-5-(2,4-dioxopyrimidin-1-yl)-4-fluoro-3-hydroxy-4-methyl-tetrahydrofuran-2-yl] methoxy-phenoxy-phosphoryl] amino] propanoate], for which the Dissolution in data set [1] (pH 1.2, 5 min) was determined as 13.82%; in data set [1] (pH 1.2, 10 min), 28.77%; in data set [1] (pH 1.2, 15 min) it was 44.57%; in data set [1] (pH 1.2, 20 min) it was 63.43%; in data set [1] (pH 1.2, 30 min), 85.39%; in data set [1] (pH 1.2, 45 min), 86.07%. For the same compound, the Dissolution in data set [1] (pH 1.2, 60 min) is 88.13%; in data set [1] (pH 1.2, 90 min), 90.79%; in data set [1] (pH 4.5, 5 min), 15.00%; in data set [1] (pH 4.5, 10 min) it was 33.94%; in data set [1] (pH 4.5, 15 min), 52.46%; in data set [1] (pH 4.5, 20 min), 74.22%. The Dissolution is reported as 98.95% in data set [1] (pH 4.5, 30 min); 100.44% in data set [1] (pH 4.5, 45 min); 101.08% in data set [1] (pH 4.5, 60 min); 102.04% in data set [1] (pH 4.5, 90 min); 36.18% in data set [1] (pH 6.8, 5 min); 65.56% in data set [1] (pH 6.8, 10 min). For the same compound, the Dissolution was 83.04% in data set [1] (pH 6.8, 15 min); 97.55% in data set [1] (pH 6.8, 20 min); 99.80% in data set [1] (pH 6.8, 30 min); 100.04% in data set [1] (pH 6.8, 45 min); 100.47% in data set [1] (pH 6.8, 60 min); 100.39% in data set [1] (pH 6.8, 90 min).

Regarding `NC(=O)c1ncn([C@@H]2O[C@H](CO)[C@@H](O)[C@H]2O)n1` [Ribavirin, 1-[(2R,3R,4S,5R)-3,4-dihydroxy-5-(hydroxymethyl)oxolan-2-yl]-1H-1,2,4-triazole-3-carboxamide], the Dissolution in data set [1] (pH 1.2, 5 min) was 25.34%; in data set [1] (pH 1.2, 10 min), 43.13%; in data set [1] (pH 1.2, 15 min), 62.29%; in data set [1] (pH 1.2, 20 min), 80.69%; in data set [1] (pH 1.2, 30 min) it was 100.74%; in data set [1] (pH 1.2, 45 min), 101.36%. The Dissolution in data set [1] (pH 1.2, 60 min) is 101.87%; in data set [1] (pH 1.2, 90 min) it was 101.97%; in data set [1] (pH 4.5, 5 min), 29.46%; in data set [1] (pH 4.5, 10 min) it was 47.54%; in data set [1] (pH 4.5, 15 min), 68.75%; in data set [1] (pH 4.5, 20 min) it was 85.33%. For the same compound, the Dissolution in data set [1] (pH 4.5, 30 min) turned out to be 101.35%; in data set [1] (pH 4.5, 45 min), 101.42%; in data set [1] (pH 4.5, 60 min), 102.72%; in data set [1] (pH 4.5, 90 min), 102.97%; in data set [1] (pH 6.8, 5 min), 59.24%; in data set [1] (pH 6.8, 10 min) it was 76.73%. In addition, the Dissolution came to 88.40% in data set [1] (pH 6.8, 15 min); 92.31% in data set [1] (pH 6.8, 20 min); 93.23% in data set [1] (pH 6.8, 30 min); 93.09% in data set [1] (pH 6.8, 45 min); 93.31% in data set [1] (pH 6.8, 60 min); 94.02% in data set [1] (pH 6.8, 90 min).

The record behind these values is patent publication US10046005B2, “Composition and method of use for combinations of anti-viral protease, polymerase inhibitors and natural bioactive compounds in the treatment of hepatitis C infection” (priority 2014, dated 2018).
